Biological target: PI-3 kinase γ (Homo sapiens, UniProt P48736)
Assay: PI3Kγ inhibitory activity, PI3-kinase HTRF assay (inhibition ratio)
Format: biochemical
Conditions: 0.5 h, PI3Kγ; for inhibition at 50 µM: compound at 50 μM; for inhibition at 10 µM: compound at 10 μM
Experimental: The PI3Kγ inhibitory activity of a compound was evaluated using PI3-kinase HTRF™ assay (Millipore) according to the following procedure:
To each well of a testing plate, 5 μL of a compound solution containing 10% DMSO (200 μmol/L or 40 μmol/L as the concentration of the compound), 5 μL of a substrate solution (40 μmol/L phosphatidylinositol (4,5)-bisphosphate, 20 mmol/L MgCl2, 10 mmol/L DTT), and 5 μL of a enzyme solution (80 μg/mL PI-3 kinase γ, 10 mmol/L MgCl2, 5 mmol/L DTT) were added, and then allowed to stand for 10 minutes.
Then, 5 μL of a reaction solution (40 μmol/L ATP, 10 mmol/L MgCl2, 5 mmol/L DTT) was added thereto. After reacting for 30 minutes at room temperature, 5 μL of a solution containing EDTA and biotinylated phosphatidylinositol (3,4,5)-triphosphate were added to quench the reaction.
5 μL of a detection reagent containing a europium-labeled anti-GST antibody, the GST-tagged PH domain, and allophycocyanin-labeled streptavidin was added thereto. After 18 hours, HTRF (excitation wavelength: 330 nm, measured wavelengths: 620 nm and 665 nm) was measured.
HTRF ratio was defined as the value obtained by dividing the amount of fluorescence obtained at the measured wavelength 665 nm by the amount of fluorescence obtained at 620 nm. The HTRF ratio in the absence of a compound was defined as 100% activity and the HTRF ratio in the absence of PI-3 kinase γ was defined as 0% activity to calculate an inhibition ratio which was defined as the PI3Kγ inhibitory activity of a compound at 50 μmol/L or 10 μmol/L.

Chain of PI-3 kinase γ (P48736 whole entry): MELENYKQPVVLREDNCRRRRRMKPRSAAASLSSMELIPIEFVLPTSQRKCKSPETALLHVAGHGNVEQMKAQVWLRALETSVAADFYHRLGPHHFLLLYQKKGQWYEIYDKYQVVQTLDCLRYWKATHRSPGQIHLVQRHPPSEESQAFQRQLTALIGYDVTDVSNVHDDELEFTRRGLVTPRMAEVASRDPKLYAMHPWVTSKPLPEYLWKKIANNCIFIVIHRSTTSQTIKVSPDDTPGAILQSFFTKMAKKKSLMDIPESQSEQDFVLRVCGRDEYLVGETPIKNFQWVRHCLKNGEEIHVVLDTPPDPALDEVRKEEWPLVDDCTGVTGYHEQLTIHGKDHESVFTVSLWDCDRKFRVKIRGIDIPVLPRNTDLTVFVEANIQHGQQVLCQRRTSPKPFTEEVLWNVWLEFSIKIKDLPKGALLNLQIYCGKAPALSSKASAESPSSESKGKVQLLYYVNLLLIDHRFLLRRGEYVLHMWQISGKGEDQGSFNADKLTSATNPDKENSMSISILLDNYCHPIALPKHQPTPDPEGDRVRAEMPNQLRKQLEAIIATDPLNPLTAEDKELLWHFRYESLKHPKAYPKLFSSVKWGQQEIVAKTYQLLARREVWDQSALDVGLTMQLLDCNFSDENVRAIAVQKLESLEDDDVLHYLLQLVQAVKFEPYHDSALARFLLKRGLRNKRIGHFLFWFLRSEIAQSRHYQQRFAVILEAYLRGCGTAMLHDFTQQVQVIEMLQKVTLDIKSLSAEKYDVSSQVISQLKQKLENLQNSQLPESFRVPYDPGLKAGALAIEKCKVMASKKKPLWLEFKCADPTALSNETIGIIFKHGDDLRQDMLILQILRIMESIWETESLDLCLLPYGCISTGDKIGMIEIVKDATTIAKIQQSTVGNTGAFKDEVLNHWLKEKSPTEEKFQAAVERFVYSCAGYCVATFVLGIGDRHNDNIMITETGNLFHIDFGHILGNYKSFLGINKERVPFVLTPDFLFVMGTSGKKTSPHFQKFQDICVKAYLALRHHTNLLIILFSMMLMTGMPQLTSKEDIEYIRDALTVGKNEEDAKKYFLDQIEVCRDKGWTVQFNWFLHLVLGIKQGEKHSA

inhibition at 50 µM [%]	inhibition at 10 µM [%]	SMILES
≥ 95	–	CNC(=O)Nc1cc2n(n1)CCN2c1cc(Br)cc(C(=O)N2CCOCC2)c1 [Compound I-173]
≥ 95	–	CNC(=O)Nc1cc2n(n1)CCN2c1cc(Br)cc(C(=O)NCCC(=O)OC(C)(C)C)c1 [Compound I-174]
94	–	CNC(=O)Nc1cc2n(n1)CCN2c1cc(Br)cc(C(=O)Nc2cccc(C(=O)OC(C)(C)C)c2)c1 [Compound I-175]
≥ 95	–	CNC(=O)Nc1cc2n(n1)CCN2c1ccc2ccccc2c1 [Compound I-176]
≥ 95	–	CNC(=O)Nc1cc2n(n1)CCN2c1cc(Br)cc(C(N)=O)c1 [Compound I-178]
≥ 95	–	CNC(=O)Nc1cc2n(n1)CCN2c1cc(Br)cc(C(=O)NC)c1 [Compound I-179]
≥ 95	–	CNC(=O)Nc1cc2n(n1)CCN2c1cc(Br)cc(C(=O)NC(C)(C)C)c1 [Compound I-180]
79	–	CNC(=O)Nc1cc2n(n1)CCN2c1cc(Br)cc(C(=O)N2CCN(C(=O)OC(C)(C)C)CC2)c1 [Compound I-182]
≥ 95	–	CNC(=O)Nc1cc2n(n1)CCN2c1cc(Br)cc(C(=O)NCCOC)c1 [Compound I-183]
≥ 95	–	CNC(=O)Nc1cc2n(n1)CCN2c1ccc(F)c(C(=O)OC(C)(C)C)c1 [Compound I-184]
89	–	CNC(=O)Nc1cc2n(n1)CCN2c1cc(Br)cc(C(=O)NCCC(=O)O)c1 [Compound I-186]
91	–	CNC(=O)Nc1cc2n(n1)CCN2c1cccc(-c2csc(NC(=O)OC(C)(C)C)n2)c1 [Compound I-188]
≥ 95	–	CNC(=O)Nc1cc2n(n1)CCN2c1ccc(F)c(C(=O)O)c1 [Compound I-189]
≥ 95	–	CNC(=O)Nc1cc2n(n1)CCN2c1cccc(S(C)(=O)=O)c1 [Compound I-191]
≥ 95	–	CNC(=O)Nc1cc2n(n1)CCN2c1cccc(-c2csc(N)n2)c1 [Compound I-192]
≥ 95	–	CNC(=O)Nc1cc2n(n1)CCN2c1ccc2c(c1)CCC2=O [Compound I-193]
95	–	CNC(=O)Nc1cc2n(n1)CCN2c1ccc2c(c1)CCNC2=O [Compound I-194]
93	–	CNC(=O)Nc1cc2n(n1)CCN2c1cc(Br)cc(C(=O)N(C)C)c1 [Compound I-195]
79	–	CCOC(=O)c1sc(N2CCn3nc(NC(=O)NC)cc32)nc1C [Compound I-196]
89	–	CNC(=O)Nc1cc2n(n1)CCN2c1cc(C(=O)N2CCOCC2)cc(-c2cccnc2)c1 [Compound I-199]
≥ 95	–	CNC(=O)Nc1cc2n(n1)CCN2c1nc(C)c(C(=O)O)s1 [Compound I-201]
88	–	COc1cc(N2CCc3nc(NC(=O)c4cnco4)sc3C2)nc(OC)n1 [Compound I-204]
≥ 95	–	COc1cc(N2CCc3nc(NC(=O)NCCC(=O)N4CCOCC4)sc3C2)nc(OC)n1 [Compound I-207]
≥ 95	–	CNC(=O)Nc1cc2n(n1)CCN2c1cc(C(=O)N2CCOCC2)cc(-c2cnc(N)nc2)c1 [Compound I-209]

inhibition at 50 µM [%]	inhibition at 10 µM [%]	SMILES
≥ 95	–	CNC(=O)Nc1cc2n(n1)CCN2c1cc(C(=O)N2CCOCC2)cc(-c2ccc(N)cc2)c1 [Compound I-210]
89	–	CCOC(=O)c1ccc(N2CCn3nc(NC(=O)NC)cc32)s1 [Compound I-211]
80	–	CC(C)(C)OC(=O)CCNC(=O)Nc1cc2n(n1)CCN2c1cccc(Cl)c1 [Compound I-212]
≥ 95	–	O=C(O)CCNC(=O)Nc1cc2n(n1)CCN2c1cccc(Cl)c1 [Compound I-215]
≥ 95	–	CNC(=O)Nc1cc2n(n1)CCN2c1ccc2c(c1)C(=O)CC2 [Compound I-216]
≥ 95	–	O=C(NCCC(=O)N1CCOCC1)Nc1cc2n(n1)CCN2c1cccc(Cl)c1 [Compound I-218]
≥ 95	–	O=C(Nc1cc2n(n1)CCN2c1cccc(Cl)c1)c1ccccc1 [Compound I-219]
≥ 95	–	CNC(=O)Nc1cc2n(n1)CCN2c1cc(C(=O)N2CCOCC2)cc(-c2cccc(O)c2)c1 [Compound I-220]
≥ 95	–	O=C(Nc1cc2n(n1)CCN2c1cccc(Cl)c1)c1cnco1 [Compound I-221]
91	–	CNC(=O)Nc1cc2n(n1)CCN2c1cc(Oc2ccccc2)cc(C(=O)N2CCOCC2)c1 [Compound I-223]
93	–	CNC(=O)Nc1cc2n(n1)CCN2c1cc(/C=C/c2ccccc2)cc(C(=O)N2CCOCC2)c1 [Compound I-225]
≥ 95	–	CNC(=O)Nc1cc2n(n1)CCN2c1ccc(C(=O)N(C)C)s1 [Compound I-226]
≥ 95	–	CNC(=O)Nc1cc2n(n1)CCN2c1ccc2c(c1)NC(=O)CC2 [Compound I-227]
85	–	CNC(=O)Nc1cc2n(n1)CCN2c1cc(C#Cc2ccccc2)cc(C(=O)N2CCOCC2)c1 [Compound I-228]
≥ 95	–	CNC(=O)Nc1cc2n(n1)CCN2c1cc(C(=O)N2CCOCC2)cc(C2=CCCCC2)c1 [Compound I-231]
76	–	CNC(=O)Nc1nc2c(s1)CN(c1cc(Oc3ccccc3)nc(OCCCOCc3ccccc3)n1)CC2 [Compound I-232]
84	–	CNC(=O)Nc1cc2n(n1)CCN2c1cc(C#CCOC)cc(C(=O)N2CCOCC2)c1 [Compound I-233]
89	–	O=C(O)CC(=O)Nc1cc2n(n1)CCN2c1cccc(Cl)c1 [Compound I-235]
88	–	CC(=O)N1CCC(C(=O)Nc2cc3n(n2)CCN3c2cccc(Cl)c2)CC1 [Compound I-236]
84	–	O=C(Nc1cc2n(n1)CCN2c1cccc(Cl)c1)C1CCCC1 [Compound I-237]
92	–	COc1cccc(C(=O)Nc2cc3n(n2)CCN3c2cccc(Cl)c2)c1 [Compound I-239]
91	–	O=C(Nc1cc2n(n1)CCN2c1cccc(Cl)c1)c1cccc(O)c1 [Compound I-240]
84	–	O=C(Nc1cc2n(n1)CCN2c1cccc(Cl)c1)c1ccc2nccn2c1 [Compound I-241]
≥ 95	–	O=C(Cn1ccnc1)Nc1cc2n(n1)CCN2c1cccc(Cl)c1 [Compound I-242]

inhibition at 50 µM [%]	inhibition at 10 µM [%]	SMILES
81	–	CS(=O)(=O)Nc1ccc(CC(=O)Nc2cc3n(n2)CCN3c2cccc(Cl)c2)cc1 [Compound I-243]
87	–	CC(=O)NCCC(=O)Nc1cc2n(n1)CCN2c1cccc(Cl)c1 [Compound I-244]
76	–	O=C(Nc1cc2n(n1)CCN2c1cccc(Cl)c1)c1nccs1 [Compound I-245]
90	–	O=C(Nc1cc2n(n1)CCN2c1cccc(Cl)c1)c1ccn[nH]1 [Compound I-246]
95	–	O=C(O)c1cccc(C(=O)Nc2cc3n(n2)CCN3c2cccc(Cl)c2)c1 [Compound I-247]
≥ 95	–	NC(=O)CCC(=O)Nc1cc2n(n1)CCN2c1cccc(Cl)c1 [Compound I-249]
≥ 95	–	CNC(=O)Nc1cc2n(n1)CCN2c1cc(C#CC2CCN(C(=O)OC(C)(C)C)CC2)cc(C(=O)N2CCOCC2)c1 [Compound I-250]
–	88	COc1cccc(CC(=O)Nc2nc3c(s2)CN(c2cc(OC)nc(OC)n2)CC3)c1 [Compound I-251]
–	88	COc1cc(N2CCc3nc(NC(=O)NCC(=O)OC(C)(C)C)sc3C2)nc(OC)n1 [Compound I-252]
–	82	COc1cc(N2CCc3nc(NC(=O)NCCCN4CCCC4=O)sc3C2)nc(OC)n1 [Compound I-253]
81	–	CNC(=O)Nc1cc2n(n1)CCN2c1cc(C#Cc2cccnc2)cc(C(=O)N2CCOCC2)c1 [Compound I-254]
–	78	CNC(=O)Nc1cc2n(n1)CCN2c1ccc(C(=O)NC)s1 [Compound I-256]
83	–	COc1cc(N2CCc3nc(NC(=O)[C@H](O)c4ccccc4)sc3C2)nc(OC)n1 [Compound I-257]
92	–	COc1cc(N2CCc3nc(NC(=O)[C@@H](O)c4ccccc4)sc3C2)nc(OC)n1 [Compound I-258]
89	–	COc1cc(N2CCc3nc(NC(=O)C(=O)c4ccccc4)sc3C2)nc(OC)n1 [Compound I-259]
93	–	CNC(=O)Nc1cc2n(n1)CCN2c1cc(CCc2ccccc2)cc(C(=O)N2CCOCC2)c1 [Compound I-260]
–	90	COc1cc(N2CCc3nc(NC(=O)NCCCC(=O)OC(C)(C)C)sc3C2)nc(OC)n1 [Compound I-261]
–	≥ 95	CNC(=O)Nc1nc2c(s1)CN(c1cc(Oc3ccccc3)nc(OCCCO)n1)CC2 [Compound I-263]
–	89	COc1cc(N2CCc3nc(NC(=O)CC(=O)OC(C)(C)C)sc3C2)nc(OC)n1 [Compound I-264]
≥ 95	–	CNC(=O)Nc1cc2n(n1)CCN2c1cc(C(=O)N2CCOCC2)cc(C2CCCCC2)c1 [Compound I-267]
–	≥ 95	COc1cc(N2CCc3nc(NC(=O)Cc4cc(OC)c(OC)c(OC)c4)sc3C2)nc(OC)n1 [Compound I-268]
–	≥ 95	COc1cc(N2CCc3nc(NC(=O)Cc4cccc(C(F)(F)F)c4)sc3C2)nc(OC)n1 [Compound I-269]
